# Experimental data from patent US8633315B2, “Substituted hydroxyethyl amine compounds as beta-secretase modulators and methods of use” (Amgen Inc., priority 2007, dated 2014).
# Key:
# [1] = biological target: BACE1 (Homo sapiens, UniProt P56817); experiment: In vitro enzymatic BACE FRET (fluorescence resonance energy transfer) assay; assay type: biochemical
# Description: In Vitro Enzymatic BACE FRET (Fluorescence Resonance Energy Transfer) Assay (Enzyme Assay Data in Table 1)
# The assay buffer used in this screen is 0.05 M acetate, pH 4.2, 10% DMSO final, 100 uM genapol (which is a nonionic detergent, below its Critical Micelle Concentration). […] The assay is effectively started by the addition of FRET substrate (50 nM) and the combination is incubated for one hour. The FRET assay is terminated with by addition of Tris buffer, which raises the pH to neutrality, and the fluorescence is determined. The FRET substrate is a peptide with commercially available fluorophore and quencher, on opposite sides of the BACE cleavage site. Proteolytic cleavage of the FRET substrate releases quenching of fluorescence (excitation […] and emission […]).
# [2] = test system: Cells stably expressing Amyloid Precursor Protein (APP); experiment: In vitro BACE cell-based assay (HEK cell assay): Aβ40 in conditioned medium by sandwich ELISA; settings: Aβ40 in conditioned medium after 24 h incubation
# Description: In Vitro BACE Cell-Based Assay:
# The cell-based assay measures inhibition or reduction of Aβ40 in conditioned medium of test compound treated cells expressing amyloid precursor protein.
# Cells stably expressing Amyloid Precursor Protein (APP) were plated at a density of 40K cells/well in 96 well plates (Costar). The cells were cultivated for 24 hours at 37° C. and 5% CO2 in DMEM supplemented with 10% FBS. The test compounds were then added to cells in 10-point dose response concentrations with the starting concentration being either 100 μM or 10 μM. The compounds were diluted from stock solutions in DMSO and the final DMSO concentration of the test compounds on cells was 0.1%. After 24 h of incubation with the test compounds the supernatant conditioned media was collected and the Aβ 40 levels were determined using a sandwich ELISA. The IC50 of the compound was calculated from the percent of control or percent inhibition of Aβ 40 as a function of the concentration of the test compound.
# The sandwich ELISA to detect Aβ 40 was performed in 96 well microtiter plates, which were pre-treated with goat anti-rabbit IgG (Pierce). The capture and detecting antibody pair that were used to detect Aβ 40 from cell supernatants were affinity purified pAb40 (Biosource) and biotinylated 6E10 (Signet Labs Inc.), respectively. The optimal concentration for the pAb40 antibody was 3 μg/ml in Superblock/TBS (Pierce) that was supplemented with 0.05% Tween 20 (Sigma). Optimal concentration for the detection antibody 6E10-biotinylated was 0.5 μg/ml in Superblock/TBS (Pierce) that had been supplemented with 2% normal goat serum and 2% normal mouse serum.
# Cellular supernatants were incubated with the capture antibody for 3 h at 4° C., followed by 3 wash steps in TBS-tween (0.05%). The detecting antibody incubation was for 2 h at 4° C., again followed by the wash steps as described previously. The final readout of the ELISA is Time-Resolved Fluorescence (counts per minute) using Delfia reagents Streptavidin-Europium and Enhancement solutions (Perkin Elmer) and the Victor 2 multilabel counter (Perkin Elmer).
# Of the compounds tested, in-the cell-based assay, data for each of Examples 33-156 is provided in Table 1 and Examples 208-246 are provided in Table 4.
# Sequence of BACE1 (P56817 46-501, species assumed): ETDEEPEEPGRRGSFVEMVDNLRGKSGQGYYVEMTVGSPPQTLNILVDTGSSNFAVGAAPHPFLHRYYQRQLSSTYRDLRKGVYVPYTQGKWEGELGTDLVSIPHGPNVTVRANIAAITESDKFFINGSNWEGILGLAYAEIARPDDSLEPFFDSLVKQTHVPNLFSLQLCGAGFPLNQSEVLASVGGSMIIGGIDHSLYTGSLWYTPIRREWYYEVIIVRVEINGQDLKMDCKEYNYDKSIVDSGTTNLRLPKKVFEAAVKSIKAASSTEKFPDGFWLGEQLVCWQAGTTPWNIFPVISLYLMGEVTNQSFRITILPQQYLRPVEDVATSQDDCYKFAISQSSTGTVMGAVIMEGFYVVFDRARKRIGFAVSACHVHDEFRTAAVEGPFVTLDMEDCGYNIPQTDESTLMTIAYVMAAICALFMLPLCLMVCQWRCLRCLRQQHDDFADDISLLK
SMILES,IC50 [1] [nM],"IC50 ([2]; Homo sapiens, HEK293, 24 h) [nM]",IC50 [2] [nM]
"C=CC[C@H](NC(C)=O)[C@H](O)CN[C@H]1CC2(CCC2)Oc2ccc(CC(C)(C)C)cc21 [Example 33, N-((1S)-1-((1R)-2-(((4S)-6-(2,2-dimethylpropyl)-3,4-dihydrospiro[chromene-2,1′-cyclobutan]-4-yl)amino)-1-hydroxyethyl)-3-buten-1-yl)acetamide]",212,–,–
"C=CC[C@H](NC(=O)COC)[C@H](O)CN[C@H]1CC2(CCC2)Oc2ccc(CC(C)(C)C)cc21 [Example 34, N-((1S)-1-((1R)-2-(((4S)-6-(2,2-dimethylpropyl)-3,4-dihydrospiro[chromene-2,1′-cyclobutan]-4-yl)amino)-1-hydroxyethyl)-3-buten-1-yl)-2-(methyloxy)acetamide]",61,–,–
"C=CC[C@H](NC(=O)COC)[C@H](O)CN[C@H]1CC2(CCC2)Oc2ccc(CC(C)C)cc21 [Example 35, N-((1S)-1-((1R)-1-hydroxy-2-(((4S)-6-(2-methylpropyl)-3,4-dihydrospiro[chromene-2,1′-cyclobutan]-4-yl)amino)ethyl)-3-buten-1-yl)-2-(methyloxy)acetamide]",104,624,–
"C#CC[C@H](NC(=O)c1cc(F)cc(F)c1)[C@H](O)CN[C@H]1CC2(CCC2)Oc2ncc(CC(C)(C)C)cc21 [Example 36, N-((1S)-1-((1R)-2-(((4′S)-6′-(2,2-dimethylpropyl)-3′,4′-dihydrospiro[cyclobutane-1,2′-pyrano[2,3-b]pyridin]-4′-yl)amino)-1-hydroxyethyl)-3-butyn-1-yl)-3,5-difluorobenzamide]",228,4160,–
"C#CCC(NC(=O)C1CCC(=O)O1)C(O)CNC1CC2(CCC2)Oc2ncc(CC(C)(C)C)cc21 [Example 37, (2R)-N-((1S)-1-((1R)-2-(((1s,3S,4′S)-6′-(2,2-dimethylpropyl)-3′,4′-dihydrospiro[cyclobutane-1,2′-pyrano[2,3-b]pyridin]-4′-yl)amino)-1-hydroxyethyl)-3-butyn-1-yl)-5-oxotetrahydro-2-furancarboxamide]",18,133,–
"C=CC[C@H](NC(C)=O)[C@H](O)CN[C@H]1CC2(CCC2)Oc2ncc(CC(C)C)cc21 [Example 38, N-((1S)-1-((1R)-1-hydroxy-2-(((4′S)-6′-(2-methylpropyl)-3′,4′-dihydrospiro[cyclobutane-1,2′-pyrano[2,3-b]pyridin]-4′-yl)amino)ethyl)-3-buten-1-yl)acetamide]",81,85,–
"C=CC[C@H](NC(=O)COC)[C@H](O)CNC1CC2(CCC2)Oc2ncc(CC(C)C)cc21 (stereo partly drawn) [Example 39, N-((1S)-1-((1R)-1-hydroxy-2-((6′-(2-methylpropyl)-3′,4′-dihydrospiro[cyclobutane-1,2′-pyrano[2,3-b]pyridin]-4′-yl)amino)ethyl)-3-buten-1-yl)-2-(methyloxy)acetamide]",147,–,–
"C=CC[C@H](NC(C)=O)[C@H](O)CN[C@H]1C[C@]2(CC[C@H]2O)Oc2ncc(CC(C)(C)C)cc21 [Example 52, N-((1S)-1-((1R)-2-(((1S,2R,4′S)-6′-(2,2-dimethylpropyl)-2-hydroxy-3′,4′-dihydrospiro[cyclobutane-1,2′-pyrano[2,3-b]pyridin]-4′-yl)amino)-1-hydroxyethyl)-3-buten-1-yl)acetamide]",70,–,–
"C=CC[C@H](NC(C)=O)[C@H](O)CN[C@H]1C[C@@]2(CC[C@@H]2O)Oc2ncc(CC(C)(C)C)cc21 [Example 53, N-((1S)-1-((1R)-2-(((1R,2S,4′S)-6′-(2,2-dimethylpropyl)-2-hydroxy-3′,4′-dihydrospiro[cyclobutane-1,2′-pyrano[2,3-b]pyridin]-4′-yl)amino)-1-hydroxyethyl)-3-buten-1-yl)acetamide]",8220,–,–
"CCC[C@H](NC(C)=O)[C@H](O)CN[C@H]1C[C@@]2(CC[C@@H]2O)Oc2ncc(CC(C)(C)C)cc21 [Example 54, N-((1S)-1-((1R)-2-(((1R,2S,4′S)-6′-(2,2-dimethylpropyl)-2-hydroxy-3′,4′-dihydrospiro[cyclobutane-1,2′-pyrano[2,3-b]pyridin]-4′-yl)amino)-1-hydroxyethyl)butyl)acetamide]",18600,–,–
"CC(=O)N[C@H]([C@H](O)CN[C@H]1CC2(CCC2)Oc2ncc(CC(C)(C)C)cc21)C(C)(C)C [Example 81, N-((1S)-1-((1R)-2-(((4′S)-6′-(2,2-dimethylpropyl)-3′,4′-dihydrospiro[cyclobutane-1,2′-pyrano[2,3-b]pyridin]-4′-yl)amino)-1-hydroxyethyl)-2,2-dimethylpropyl)acetamide]",21400,–,–
"C=CC[C@H](NC(=O)[C@H]1CCCO1)[C@H](O)CN[C@H]1CC2(CCC2)Oc2ncc(CC(C)(C)C)cc21 [Example 92, (2R)-N-((1S)-1-((1R)-2-(((4′S)-6′-(2,2-dimethylpropyl)-3′,4′-dihydrospiro[cyclobutane-1,2′-pyrano[2,3-b]pyridin]-4′-yl)amino)-1-hydroxyethyl)-3-buten-1-yl)tetrahydro-2-furancarboxamide]",84,–,–
"C=CC[C@H](NC(=O)c1ccno1)[C@H](O)CN[C@H]1CC2(CCC2)Oc2ncc(CC(C)(C)C)cc21 [Example 93, N-((1S)-1-((1R)-2-(((4′S)-6′-(2,2-dimethylpropyl)-3′,4′-dihydrospiro[cyclobutane-1,2′-pyrano[2,3-b]pyridin]-4′-yl)amino)-1-hydroxyethyl)-3-buten-1-yl)-5-isoxazolecarboxamide]",43,–,–
"CC=CC[C@H](NC(=O)[C@H]1CCC(=O)O1)[C@H](O)CN[C@H]1C[C@]2(C[C@H](F)C2)Oc2ncc(CC(C)(C)C)cc21 [Example 108, (2R)-N-((1S)-1-((1R)-2-(((1s,3S,4′S)-6′-(2,2-dimethylpropyl)-3-fluoro-3′,4′-dihydrospiro[cyclobutane-1,2′-pyrano[2,3-b]pyridin]-4′-yl)amino)-1-hydroxyethyl)-3-penten-1-yl)-5-oxotetrahydro-2-furancarboxamide]",–,–,95
"C=CCC(NC(=O)COC)C(O)CNC1CC2(CC(C#N)C2)Oc2ncc(CC(C)(C)C)cc21 [Example 113, N-((1S)-1-((1R)-2-(((1r,3S,4′S)-3-cyano-6′-(2,2-dimethylpropyl)-3′,4′-dihydrospiro[cyclobutane-1,2′-pyrano[2,3-b]pyridin]-4′-yl)amino)-1-hydroxyethyl)-3-buten-1-yl)-2-(methyloxy)acetamide]",302,–,–
"C=CCC(NC(C)=O)C(O)CNC1CC2(CC(C#N)C2)Oc2ncc(CC(C)(C)C)cc21 [Example 114, N-((1S)-1-((1R)-2-(((1r,3S,4′S)-3-cyano-6′-(2,2-dimethylpropyl)-3′,4′-dihydrospiro[cyclobutane-1,2′-pyrano[2,3-b]pyridin]-4′-yl)amino)-1-hydroxyethyl)-3-buten-1-yl)acetamide]",378,–,–
"C=CC[C@H](NC(C)=O)[C@H](O)CN[C@H]1CC2(CCC2)Oc2ncc(C[C@H](C)C(F)(F)F)cc21 [Example 122, N-((1S)-1-((1R)-1-hydroxy-2-(((4′S)-6′-((2S)-3,3,3-trifluoro-2-methylpropyl)-3′,4′-dihydrospiro[cyclobutane-1,2′-pyrano[2,3-b]pyridin]-4′-yl)amino)ethyl)-3-buten-1-yl)acetamide]",322,–,–
"C=CC[C@H](NC(=O)COC)[C@H](O)CN[C@H]1CC2(CCC2)Oc2ncc(C[C@H](C)C(F)(F)F)cc21 [Example 123, N-((1S)-1-((1R)-1-hydroxy-2-(((4′S)-6′-((2S)-3,3,3-trifluoro-2-methylpropyl)-3′,4′-dihydrospiro[cyclobutane-1,2′-pyrano[2,3-b]pyridin]-4′-yl)amino)ethyl)-3-buten-1-yl)-2-(methyloxy)acetamide]",177,–,–
"C=CC[C@H](NC(=O)COC)[C@H](O)CN[C@H]1CC2(CCC2)Oc2ncc(C[C@@H](C)C(F)(F)F)cc21 [Example 124, N-((1S)-1-((1R)-1-hydroxy-2-(((4′S)-6′-((2R)-3,3,3-trifluoro-2-methylpropyl)-3′,4′-dihydrospiro[cyclobutane-1,2′-pyrano[2,3-b]pyridin]-4′-yl)amino)ethyl)-3-buten-1-yl)-2-(methyloxy)acetamide]",412,–,–
